For one test, the target named is PD-1/PD-L1 (Homo sapiens (Human), UniProt Q9NZQ7). The test is described as follows: Homogeneous Time-Resolved Fluorescence (HTRF) PD-1/PD-L1 binding assay. The settings on record: recombinant human PD-1 and PD-L1, 25° C., pH 7.4. The method, then: Example A. Homogeneous Time-Resolved Fluorescence (HTRF) PD-1/PD-L1 Binding Assay
The assays were conducted in a standard black 384-well polystyrene plate with a final volume of 20 μL. Inhibitors were first serially diluted in DMSO and then added to the plate wells before the addition of other reaction components. The final concentration of DMSO in the assay was 1%. The assays were carried out at 25° C. in the PBS buffer (pH 7.4) with 0.05% Tween-20 and 0.1% BSA. Recombinant human PD-L1 protein (19-238) with a His-tag at the C-terminus was purchased from AcroBiosystems (PD1-H5229). Recombinant human PD-1 protein (25-167) with Fc tag at the C-terminus was also purchased from AcroBiosystems (PD1-H5257). PD-L1 and PD-1 proteins were diluted in the assay buffer and 10 μL was added to the plate well. Plates were centrifuged and proteins were preincubated with inhibitors for 40 minutes. The incubation was followed by the addition of 10 μL of HTRF detection buffer supplemented with Europium cryptate-labeled anti-human IgG (PerkinElmer-AD0212) specific for Fc and anti-His antibody conjugated to SureLight®-Allophycocyanin (APC, PerkinElmer-AD0059H). After centrifugation, the plate was incubated at 25° C. for 60 min. before reading on a PHERAstar FS plate reader (665 nm/620 nm ratio). Final concentrations in the assay were—3 nM PD1,10 nM PD-L1, 1 nM europium anti-human IgG and 20 nM anti-His-Allophycocyanin. IC50 determination was performed by fitting the curve of percent control activity versus the log of the inhibitor concentration using the GraphPad Prism 5.0 software.

The subject of test [1] is U2OS/PD-L1 cells and Jurkat-PD-1-SHP cells. The experiment in a line: Src homology region 2 domain-containing phosphatase (SHP) assay. The note with it: Homo sapiens; U2OS/PD-L1 cells with Jurkat-PD-1-SHP cells, 2 hours. The class given is cell-based. On the procedure:
Example B. Src Homology Region 2 Domain-Containing Phosphatase (SHP) Assay
U2OS/PD-L1 cells (DiscoveRx Corporation) were maintained in McCoy's 5A medium with addition of 10% FBS, 0.25 μg/ml Puromycin. After removing the culture media, the cell medium was replaced with assay medium (RPMI1640 medium with 1% FBS). The U2OS/PD-L1 cells were then added in 384-well black clear bottom assay plate (CELLCOAT® Tissue Culture Plates, Greiner Bio-One) at 5000 cells per well in 20 μL assay medium. Test compounds were prepared by serial dilution in DMSO and 125 nL compound were first transferred to the 384 REMP plate well (Thermofisher) by ECHO liquid handler (Labcyte) followed with addition of 27.5 μL assay medium. 5 μL/well compounds in the assay medium were transferred to the cell plate with 0.05% DMSO in the final assay at 0.5 μM. Jurkat-PD-1-SHP cells (DiscoveRx Corporation) were cultured in RPMI1640 medium supplemented with 10% FBS, 250 μg/ml Hygromycin B, 500 μg/ml G418. After the replacement of culture media with assay medium, 5,000 Jurkat-PD-1-SHP cells in 20 μL were dispensed into each well. The assay plate was incubated at 37° C., 5% CO2 for 2 hours before 2.5 μL PathHunter reagent 1 (DiscoveRx Corporation) were added to each well. The assay plate was shaken for 1 min at 350 rpm in the dark followed with addition of 10 μL PathHunter reagent 2 (DiscoveRx Corporation). Chemiluminescent signal was recorded with TopCount reader (Perkin Elmer) after incubation at room temperature for 1 hour. Wells with DMSO were served as the positive controls and wells containing no cells were used as negative controls. IC50 determination was performed by fitting the curve of percentage of control activity versus the log of the compound concentration using the GraphPad Prism 6.0 software.

Test [2] concerns PD-L1 aAPC/CHO-K1 cells and Jurkat-PD-1-NFAT effector cells. The experiment in a line: Nuclear factor of activated T-cells (NFAT) assay. The class given is cell-based. The settings on record: Cricetulus griseus; PD-L1 aAPC/CHO-K1 cells with Jurkat-PD-1-NFAT effector cells, 24 hours. The method, then:
Example C. Nuclear Factor of Activated T-Cells (NFAT) Assay
PD-L1 aAPC/CHO-Klcells (Promega) were maintained in F-12 medium with addition of 10% FBS, 200 μg/ml Hygromycin B, 250 μg/ml Geneticin (G418). Jurkat-PD-1-NFAT effector cells (Promega) were cultured in RPMI 1640 medium supplemented with 10% FBS, 100 μg/ml Hygromycin B, 500 μg/ml G418. The culture media of PD-L1 aAPC/CHO-K1 cells were first replaced with assay medium (RPMI1640 medium with 1% FBS). The PD-L1 aAPC/CHO-K1 cells were then added in a white 384-well white clear bottom assay plate (CELLCOAT® Tissue Culture Plates, Greiner Bio-One) at 8000 per well in 10 μL assay medium. Test compounds were prepared by serial dilution in DMSO and 0.8 μL test compounds in DMSO were first transferred to the 384 REMP plate well (Thermofisher) by PlateMate Plus (Thermofisher) followed with addition of 50 μL plating medium. 5 μL compounds in the assay medium were transferred to the cells with 0.4% DMSO in the final assay at 2 μM. After removing the culture media, 10,000 Jurkat-PD-1-NFAT effector cells in 5 μL assay medium was dispensed into each well. The assay plate was incubated at 37° C., 5% CO2 for 24 hours. After the assay plate was equilibrated to room temp for 15 minutes, 20 µL/well of Bio-Glo™ reagent (Promega) were added. After 8 minutes incubation at room temperature, luminescence was read at with Pherastar microplate reader (BMG Labtech). The fold of induction (FOI) was calculated based on the ratio of luminescence normalized to the DMSO wells within each assay plate. The maximum percentage of induction was reported based on the ratio between the highest FOI of each compound and the maximum FOI of control compound within each assay plate. Wells with DMSO were served as the negative controls and wells containing control compound with the highest FOI were used as positive controls. EC50 determination was performed by fitting the curve of percent control activity versus the log of the compound concentration using the GraphPad Prism 6.0 software.

For the next test, the target named is PD-L1 (Homo sapiens (Human), UniProt Q9NZQ7). The test is described as follows: PD-L1 whole blood internalization assay. It is filed as cell-based. The note with it: 1 ng/ml human interferon γ, PD-L1 expression on CD14+ cells, read-out: Whole Blood (24 HR) IC50. The method, then: Example D. PD-L1 Whole Blood Internalization Assay
To determine PD-L1 internalization in human whole blood, normal human blood (Biological Specialty Corp, Colmar. Pa.) was incubated in the presence or absence of a concentration range of test compounds and 1 ng/ml human interferon γ (R&D Systems Inc. Minn. […] Blood was then stained with PD-L1 (MIH1, eBioscience; or BD Biosciences San Jose, Calif.), CD14 (Life Technologies, Carlsbad, Calif.) for 30 minutes in the dark at room temperature. Whole Blood/red cells were lysed/fixed (lysis buffer BD Biosciences) for 5 minutes at 37° C. in the dark and then centrifuged at 1600 RPM for 5 minutes. Cells were resuspended in Stain Buffer (BD Bioscience, San Jose, Calif.) and transferred into 96 well round bottom plates (Corning). Cells were gated on CD14+(BD Biosciences) and PD-L1 expression determined by mean fluorescence intensity (MFI) (BD LSRFortessa™ X-20). IC50 determination was performed by fitting the curve of compound percent inhibition versus the log of the compound concentration using the GraphPad Prism 7.0 software.

pEC50, pIC50: −log10 of the molar value.

Chain of PD-L1 (Q9NZQ7 19-290): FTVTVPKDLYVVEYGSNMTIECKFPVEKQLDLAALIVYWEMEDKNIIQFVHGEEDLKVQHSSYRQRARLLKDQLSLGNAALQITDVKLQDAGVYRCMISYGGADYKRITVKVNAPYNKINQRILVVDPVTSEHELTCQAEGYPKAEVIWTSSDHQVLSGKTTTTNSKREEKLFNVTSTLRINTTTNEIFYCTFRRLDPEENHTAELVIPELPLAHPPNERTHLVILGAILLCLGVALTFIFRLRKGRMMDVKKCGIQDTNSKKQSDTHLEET
Chain of PD-1/PD-L1 (Q9NZQ7 19-238): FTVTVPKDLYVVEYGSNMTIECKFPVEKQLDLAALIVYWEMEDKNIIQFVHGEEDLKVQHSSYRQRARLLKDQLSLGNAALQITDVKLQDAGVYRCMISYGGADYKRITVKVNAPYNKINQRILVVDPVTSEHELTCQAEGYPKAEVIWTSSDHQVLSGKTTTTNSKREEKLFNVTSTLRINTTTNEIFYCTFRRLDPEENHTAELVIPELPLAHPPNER

With `Cc1nc(Nc2cccc(-c3cccc(-c4nc5cc(CN6CCC(C(=O)O)CC6)cc(C#N)c5o4)c3C)c2C)c2ncc(CN3CC[C@](C)(O)C3)cc2n1` [Example 3, (S)-1-((7-cyano-2-(3′-(7-((3-hydroxy-3-methylpyrrolidin-1-yl)methyl)-2-methylpyrido[3,2-d]pyrimidin-4-ylamino)-2,2′-dimethylbiphenyl-3-yl)benzo[d]oxazol-5-yl)methyl)piperidine-4-carboxylic Acid], the pIC50 was no less than 8.00 at PD-1/PD-L1, no less than 8.00 in test [1] and 7.00 to 8.00 at PD-L1. In test [2], this molecule gave a negative logarithm of the EC50 (pEC50) of 7.00 to 8.00.

Take `Cc1nc(Nc2cccc(-c3cccc(-c4nc5cc(CN6CCC(C(=O)O)CC6)cc(C#N)c5o4)c3C)c2C)c2ncc(CN[C@@H](C)CO)cc2n1` [Example 4, (S)-1-((7-cyano-2-(3′-(7-((1-hydroxypropan-2-ylamino)methyl)-2-methylpyrido[3,2-d]pyrimidin-4-ylamino)-2,2′-dimethylbiphenyl-3-yl)benzo[d]oxazol-5-yl)methyl)piperidine-4-carboxylic Acid]: the pIC50 at PD-1/PD-L1 was no less than 8.00; in test [1], no less than 8.00; on PD-L1, 7.00 to 8.00. Moreover, in test [2], the negative-log EC50 (pEC50) was 7.00 to 8.00.

For the molecule `Cc1nc(Nc2cccc(-c3cccc(-c4nc5cc(CN6CCC(C(=O)O)CC6)cc(C#N)c5o4)c3C)c2C)c2ncc(CNC[C@H](C)O)cc2n1` [Example 5, (S)-1-((7-cyano-2-(3′-(7-((2-hydroxypropylamino)methyl)-2-methylpyrido[3,2-d]pyrimidin-4-ylamino)-2,2′-dimethylbiphenyl-3-yl)benzo[d]oxazol-5-yl)methyl)piperidine-4-carboxylic Acid], the pIC50 at PD-1/PD-L1 is no less than 8.00; in test [1], 7.00 to 8.00; on PD-L1, 6.30 to 7.00. This molecule also had a pEC50 in test [2] of 7.00 to 8.00.

With `Cc1nc(Nc2cccc(-c3cccc(-c4nc5cc(CN6CC[C@@H](C(=O)O)C6)cc(C#N)c5o4)c3C)c2C)c2ncc(CN3CC[C@@H](O)C3)cc2n1` [Example 6, (R)-1-((7-cyano-2-(3′-(7-(((R)-3-hydroxypyrrolidin-1-yl)methyl)-2-methylpyrido[3,2-d]pyrimidin-4-ylamino)-2,2′-dimethylbiphenyl-3-yl)benzo[d]oxazol-5-yl)methyl)pyrrolidine-3-carboxylic Acid], the pIC50 on PD-1/PD-L1 is no less than 8.00; in test [1], no less than 8.00; at PD-L1 it was 7.00 to 8.00. Moreover, the pEC50 in test [2] was 7.00 to 8.00.

`Cc1nc(Nc2cccc(-c3cccc(-c4nc5cc(CN6CC[C@@H](C(=O)O)C6)cc(C#N)c5o4)c3C)c2C)c2ncc(CN3CC[C@@](C)(O)C3)cc2n1` [Example 7, (R)-1-((7-cyano-2-(3′-(7-(((R)-3-hydroxy-3-methylpyrrolidin-1-yl)methyl)-2-methylpyrido[3,2-d]pyrimidin-4-ylamino)-2,2′-dimethylbiphenyl-3-yl)benzo[d]oxazol-5-yl)methyl)pyrrolidine-3-carboxylic Acid]: the pIC50 at PD-1/PD-L1 was no less than 8.00; in test [1], no less than 8.00; on PD-L1 it was 7.00 to 8.00. Moreover, the negative-log EC50 (pEC50) in test [2] was 7.00 to 8.00.

As to `Cc1nc(Nc2cccc(-c3cccc(-c4nc5cc(CN6CC[C@@H](C(=O)O)C6)cc(C#N)c5o4)c3C)c2C)c2ncc(CN3CC[C@](C)(O)C3)cc2n1` [Example 8, (R)-1-((7-cyano-2-(3′-(7-(((S)-3-hydroxy-3-methylpyrrolidin-1-yl)methyl)-2-methylpyrido[3,2-d]pyrimidin-4-ylamino)-2,2′-dimethylbiphenyl-3-yl)benzo[d]oxazol-5-yl)methyl)pyrrolidine-3-carboxylic Acid], the pIC50 is no less than 8.00 at PD-1/PD-L1, no less than 8.00 in test [1] and 7.00 to 8.00 at PD-L1. This molecule gave a pEC50 in test [2] of 7.00 to 8.00.

In the case of `Cc1nc(Nc2cccc(-c3cccc(-c4nc5cc(CN6CC[C@@](C)(C(=O)O)C6)cc(C#N)c5o4)c3C)c2C)c2ncc(CN3CC[C@@H](O)C3)cc2n1` [Example 11, (R)-1-((7-cyano-2-(3′-(7-(((R)-3-hydroxypyrrolidin-1-yl)methyl)-2-methylpyrido[3,2-d]pyrimidin-4-ylamino)-2,2′-dimethylbiphenyl-3-yl)benzo[d]oxazol-5-yl)methyl)-3-methylpyrrolidine-3-carboxylic Acid], the negative-log IC50 (pIC50) at PD-1/PD-L1 is no less than 8.00; in test [1], no less than 8.00; on PD-L1 it was 7.00 to 8.00. For the same molecule, the negative logarithm of the EC50 (pEC50) in test [2] is 7.00 to 8.00.

As for `Cc1nc(Nc2cccc(-c3cccc(-c4nc5cc(CN6CC[C@@](C)(C(=O)O)C6)cc(C#N)c5o4)c3C)c2C)c2ncc(CN3CC[C@@](C)(O)C3)cc2n1` [Example 12, (R)-1-((7-cyano-2-(3′-(7-(((R)-3-hydroxy-3-methylpyrrolidin-1-yl)methyl)-2-methylpyrido[3,2-d]pyrimidin-4-ylamino)-2,2′-dimethylbiphenyl-3-yl)benzo[d]oxazol-5-yl)methyl)-3-methylpyrrolidine-3-carboxylic Acid], the pIC50 at PD-1/PD-L1 was no less than 8.00; in test [1], no less than 8.00; at PD-L1, 7.00 to 8.00. For the same molecule, in test [2], the pEC50 is 7.00 to 8.00.

The values are drawn from US10669271B2, “Heterocyclic compounds as immunomodulators” (Incyte Corporation, priority 2018, dated 2020).
